Where “and” joins values, the source holds several entries; their conditions need not be identical. Identical values can stand only once.
Molecular target: T1, CETP (Homo sapiens, UniProt P11597)
T1 construct: endogenous in cells; host or cells: trial patients (in vivo, circulating plasma CETP)
T1 sequence (P11597 18-493): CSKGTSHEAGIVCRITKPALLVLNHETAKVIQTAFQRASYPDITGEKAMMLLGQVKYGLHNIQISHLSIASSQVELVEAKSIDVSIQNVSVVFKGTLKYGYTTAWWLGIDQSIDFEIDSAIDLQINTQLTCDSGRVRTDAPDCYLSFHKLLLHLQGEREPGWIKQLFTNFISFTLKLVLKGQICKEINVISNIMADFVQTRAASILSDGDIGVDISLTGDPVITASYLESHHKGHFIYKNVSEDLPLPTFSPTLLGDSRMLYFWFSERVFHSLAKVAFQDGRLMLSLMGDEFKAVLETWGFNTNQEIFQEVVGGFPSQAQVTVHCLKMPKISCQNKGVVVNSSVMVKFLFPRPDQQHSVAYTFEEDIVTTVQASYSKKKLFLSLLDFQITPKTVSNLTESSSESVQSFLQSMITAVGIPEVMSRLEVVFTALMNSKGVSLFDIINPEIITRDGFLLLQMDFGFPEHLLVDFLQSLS
Experiment: Placebo-controlled, double-blind, randomized phase 2 study of obicetrapib as adjunct to high-intensity statin therapy: lipoprotein lipid and apolipoprotein responses
Assay type: in vivo
Conditions: for LDL-C by PUC, % Change from Baseline LS mean (95% CI) / LDL-C reduced from baseline (Friedewald formula) / Apo B reduced by / Lp(a) reduced by / non-HDL-C reduced by: 8 weeks; for LDL-C by PUC, % Change from Baseline LS mean (95% CI) / Apo A1 Week 8 change, LS Mean ± SE / Apo B Week 8 change, LS Mean ± SE / HDL-C Week 8 change, LS Mean ± SE / LDL-C (Martin-Hopkins) Week 8 change, LS Mean ± SE / Lp(a) Week 8 change, LS Mean ± SE / Non-HDL-C Week 8 change, LS Mean ± SE / TG Week 8 change, LS Mean ± SE / VLDL-C Week 8 change, LS Mean ± SE / LDL-C (PUC) Week 8 change, LS Mean ± SE / LDL-C reduced from baseline (Friedewald formula) / Apo B reduced by / Lp(a) reduced by / non-HDL-C reduced by: adjunct to high-intensity statin; for LDL-C by PUC, % Change from Baseline LS mean (95% CI): Table 3; for Apo A1 Week 8 change, Median (min, max) / LDL-C (Martin-Hopkins) Week 8 change, Median (min, max) / Lp(a) Week 8 change, Median (min, max) / TG Week 8 change, Median (min, max) / VLDL-C Week 8 change, Median (min, max): adjunct to high-intensity statin therapy; for Apo A1 Week 8 change, LS Mean ± SE / Apo B Week 8 change, LS Mean ± SE / HDL-C Week 8 change, LS Mean ± SE / LDL-C (Martin-Hopkins) Week 8 change, LS Mean ± SE / Lp(a) Week 8 change, LS Mean ± SE / Non-HDL-C Week 8 change, LS Mean ± SE / TG Week 8 change, LS Mean ± SE / VLDL-C Week 8 change, LS Mean ± SE / LDL-C by Friedewald, % Change from Baseline LS mean: MMRM; for LDL-C (PUC) Week 8 change, LS Mean ± SE: analysis of covariance model, Table 9; for ApoB, % change from Baseline Median / HDL-C, % change from Baseline Median / LDL-C by Friedewald, % Change from Baseline (median) / LDL-C by PUC, % Change from Baseline (median) / Non-HDL-C, % Change from Baseline (median): week 8, adjunct to high-intensity statin therapy; for LDL-C by Friedewald, % Change from Baseline LS mean: week 8, adjunct to high-intensity statin; for LDL-C reduced from baseline (Friedewald formula): primary analysis; for LDL-C reduced from baseline (Friedewald formula) / Apo B reduced by / Lp(a) reduced by / non-HDL-C reduced by: stated as reduction
Description: To evaluate the efficacy, safety, and tolerability of obicetrapib as an adjunct to high-intensity statin therapy, a placebo-controlled, double-blind, randomized, phase 2 study was carried out.
The study consisted of three arms: 1) 5 mg obicetrapib as adjunctive therapy; 2) 10 mg obicetrapib as adjunctive therapy and 3) a placebo arm. The second objective was to evaluate other lipoprotein lipid and apolipoprotein responses, safety and tolerability profiles, and plasma concentrations of obicetrapib during treatment and for several weeks of follow-up. Lastly, this study aimed to determine if different quantitative measures of LDL-C levels produced differences in the treatment effects of CETP inhibition.
This randomised, double-blind, placebo-controlled, parallel-group phase 2 trial was conducted in male and female patients (18-75 years), treated with high-intensity statin therapy, with LDL-C levels >70 mg/DL and TG levels < 400 mg/dL. Key exclusion criteria were patients with BMI > 40 kg/m; Significant cardiovascular disease; HbA1c > 10%; Uncontrolled hypertension; Active muscle disease; GFR < 60 ml/min; Hepatic dysfunction; Anemia; History of malignancy; Alcohol abuse; Treatment with investigational product; Treatment with PCSK9 inhibitor; Clinically significant condition; and/or prior exposure to a CETP inhibitor. Patients were recruited at 19 sites in the United States. The trial was approved by Independent Ethics Committees, and each patient provided written informed consent. The trial was conducted in accordance with the principles of the Declaration of Helsinki and Good Clinical Practice Guidelines and the protocol was registered on ClinicalTrials.gov (NCT04753606).
The screening period for this study took up to 2-weeks. Afterwards patients were randomized to placebo, 5 mg obicetrapib or 10 mg obicetrapib for an 8-week treatment period. After the treatment period, patients continued for a 4-week safety follow-up and a 15-week PK follow-up.
Patients were randomly assigned to receive one of the three treatments investigative treatments. All treatments were to be taken once daily with food for 8 weeks. Safety was assessed throughout the trial by monitoring adverse events and concomitant medication use, 12-lead electrocardiograms (ECGs), vital signs, laboratory safety assessments and physical examinations. Additional assessments included salivary cortisol, plasma aldosterone, high-sensitivity C-reactive protein (hsCRP) and endothelin 1.
Efficacy assessments included fasted lipid profiles including total cholesterol (TC), HDL-C, LDL-C, triglycerides, apolipoprotein B (ApoB), and derived parameters.
Total cholesterol and triglycerides were measured by homogenous enzymatic assay using a Modular analyser (cholesterol oxidase peroxidase-peroxidase aminophenazone phenol [CHOP-PAP]) method and a glycerol phosphate oxidase [GPO-PAP] method, respectively. Apolipoprotein B was measured by immunoturbidimetry using reagents from Rolf Greiner Biochemica (Germany) and N apoprotein standard serum from Siemens (Germany). LDL particle size was determined by gradient gel electrophoresis. HDL fraction was separated by a combined ultracentrifugation-precipitation method (β-quantification). HDL-2 and HDL-3 fractions were then separated by further ultracentrifugation. Total-cholesterol in HDL, HDL 2 and HLD-3 fractions, free cholesterol in HDL fraction, triglycerides in HDL fraction and phospholipids in plasma and HDL-fraction were measured using enzymatic methods and reagents from Diasys Diagnostics (Germany). The measurements were performed on an Olympus AU600 automatic analyzer and were calibrated using secondary standards from Roche Diagnostics (total-cholesterol, triglycerides) and Diasys Diagnostics (free cholesterol, phospholipids), respectively. Esterified cholesterol was calculated as the difference between total-cholesterol and free cholesterol.
The primary outcome measure was LDL-C (percent change). […]

[1] = 5 mg once daily for 8 weeks as adjunct to high-intensity statin therapy
[2] = 5 mg once daily, listed as obicetrapib
[3] = 10 mg once daily for 8 weeks as adjunct to high-intensity statin therapy
[4] = 10 mg once daily, listed as obicetrapib

CCOC(=O)N1c2ccc(C(F)(F)F)cc2[C@@H](N(Cc2cc(C(F)(F)F)cc(C(F)(F)F)c2)c2ncc(OCCCC(=O)O)cn2)C[C@H]1CC [Obicetrapib, (2R,4S)-4-{[3,5-bis(trifluoromethyl)benzyl]-[5-(3-carboxypropoxy)pyrimidin-2-yl]amino}-2-ethyl-6-trifluoromethyl-3,4-dihydro-2H-quinoline-1-carboxylic acid ethyl ester]
ApoB, Change from Baseline Median mg/dL [1]: -22.0 mg/dL
ApoB, EoT Median [1]: 65.0 mg/dL
HDL-C, Change from Baseline Median mg/dL [1]: 60.0 mg/dL
HDL-C, EoT Median [1]: 107.0 mg/dL
LDL-C by Friedewald, EoT Median [1]: 51.0 mg/dL
LDL-C by PUC, EoT Median [1]: 53.0 mg/dL
Non-HDL-C, EoT Median [1]: 71 mg/dL
LDL-C by PUC, % Change from Baseline LS mean (95% CI) (5 mg once daily): -37.98%
Apo A1 Week 8 change, Median (min, max) (5 mg once daily): 44.6% and 44.6 (-10.0, 87.1) %
LDL-C (Martin-Hopkins) Week 8 change, Median (min, max) (5 mg once daily): -42.5 (-80.8, 74.4) %
Lp(a) Week 8 change, Median (min, max) (5 mg once daily): -33.8 (-84.6, 93.8) %
TG Week 8 change, Median (min, max) (5 mg once daily): -11.0 (-53.3, 86.7) %
VLDL-C Week 8 change, Median (min, max) (5 mg once daily): -11.5 (-53.5, 83.3) %
TG Week 8 change, Median (min, max) [2]: -11.0%
VLDL-C Week 8 change, Median (min, max) [2]: -11.5%
Apo A1 Week 8 change, LS Mean ± SE (5 mg once daily): 41.1 ± 3.04%
Apo B Week 8 change, LS Mean ± SE (5 mg once daily): -22.4 ± 2.58%
HDL-C Week 8 change, LS Mean ± SE (5 mg once daily): 122 ± 6.59%
LDL-C (Martin-Hopkins) Week 8 change, LS Mean ± SE (5 mg once daily): -39.6 ± 3.68%
Lp(a) Week 8 change, LS Mean ± SE (5 mg once daily): -30.9 ± 4.43%
Non-HDL-C Week 8 change, LS Mean ± SE (5 mg once daily): -34.4 ± 3.18%
TG Week 8 change, LS Mean ± SE (5 mg once daily): -6.63 ± 5.32%
VLDL-C Week 8 change, LS Mean ± SE (5 mg once daily): -6.02 ± 5.24%
LDL-C (PUC) Week 8 change, LS Mean ± SE (5 mg once daily): -35.7 ± 3.31%
ApoB, % change from Baseline Median (5 mg once daily): -24.40% and -24.4 (-58.5, 47.4) %
HDL-C, % change from Baseline Median (5 mg once daily): 135% and 135.4% and 135 (-26.4, 213) %
LDL-C by Friedewald, % Change from Baseline (median) (5 mg once daily): -42.90% and -42.9 (-81.9, 72.4) %
LDL-C by PUC, % Change from Baseline (median) (5 mg once daily): -41.5% and -41.45% and -41.5 (-71.2, 62.3) %
Non-HDL-C, % Change from Baseline (median) (5 mg once daily): -38.9% and -38.9 (-65.6, 66.3) %
LDL-C by PUC, % Change from Baseline (median) [2]: -41.5%
LDL-C by Friedewald, % Change from Baseline LS mean (5 mg once daily): -37.94% and -38.0 ± 3.49%
LDL-C reduced from baseline (Friedewald formula) (5 mg): 42.9%
Apo B reduced by (5 mg): 24.4%
Lp(a) reduced by (5 mg): 33.8%
non-HDL-C reduced by (5 mg): 38.9%
ApoB, Change from Baseline Median mg/dL [3]: -24.5 mg/dL
ApoB, EoT Median [3]: 58.5 mg/dL
HDL-C, Change from Baseline Median mg/dL [3]: 72.0 mg/dL
HDL-C, EoT Median [3]: 117.5 mg/dL
LDL-C by Friedewald, EoT Median [3]: 52.0 mg/dL
LDL-C by PUC, EoT Median [3]: 49.5 mg/dL
Non-HDL-C, EoT Median [3]: 69 mg/dL
LDL-C by PUC, % Change from Baseline LS mean (95% CI) (10 mg once daily): -44.15%
Apo A1 Week 8 change, Median (min, max) (10 mg once daily): 47.8% and 47.8 (13.5, 106) %
LDL-C (Martin-Hopkins) Week 8 change, Median (min, max) (10 mg once daily): -49.2 (-77.0, 28.1) %
Lp(a) Week 8 change, Median (min, max) (10 mg once daily): -56.5 (-85.7, 18.3) %
TG Week 8 change, Median (min, max) (10 mg once daily): -7.85 (-63.7, 129) %
VLDL-C Week 8 change, Median (min, max) (10 mg once daily): -7.90 (-44.4, 125) %
LDL-C (Martin-Hopkins) Week 8 change, Median (min, max) [4]: -49.2%
Apo A1 Week 8 change, LS Mean ± SE (10 mg once daily): 52.3 ± 3.04%
Apo B Week 8 change, LS Mean ± SE (10 mg once daily): -28.1 ± 2.56%
HDL-C Week 8 change, LS Mean ± SE (10 mg once daily): 157 ± 6.54%
LDL-C (Martin-Hopkins) Week 8 change, LS Mean ± SE (10 mg once daily): -46.9 ± 3.65%
Lp(a) Week 8 change, LS Mean ± SE (10 mg once daily): -42.0 ± 4.33%
Non-HDL-C Week 8 change, LS Mean ± SE (10 mg once daily): -39.9 ± 3.15%
TG Week 8 change, LS Mean ± SE (10 mg once daily): 2.45 ± 5.27%
VLDL-C Week 8 change, LS Mean ± SE (10 mg once daily): 3.08 ± 5.19%
LDL-C (PUC) Week 8 change, LS Mean ± SE (10 mg once daily): -46.8 ± 3.23%
ApoB, % change from Baseline Median (10 mg once daily): -29.75% and -29.8 (-58.4, 13.0) %
HDL-C, % change from Baseline Median (10 mg once daily): 165% and 165 (55.1, 286) %
LDL-C by Friedewald, % Change from Baseline (median) (10 mg once daily): -45.65% and -45.7 (-78.0, 26.2) %
LDL-C by PUC, % Change from Baseline (median) (10 mg once daily): -50.8% and -50.75% and -50.8 (-76.9, 15.6) %
Non-HDL-C, % Change from Baseline (median) (10 mg once daily): -44.4% and -44.4 (-70.2, 22.5) %
LDL-C by PUC, % Change from Baseline (median) [4]: -50.8%
LDL-C by Friedewald, % Change from Baseline LS mean (10 mg once daily): -44.15% and -44.2 ± 3.46%
LDL-C reduced from baseline (Friedewald formula) (10 mg): 45.7%
Apo B reduced by (10 mg): 29.8%
Lp(a) reduced by (10 mg): 56.5%
non-HDL-C reduced by (10 mg): 44.4%
median Apo B reductions from baseline (10 mg, post-hoc analysis, individuals with baseline Apo B >100 mg/dL): 39%

Reference: patent EP4789665A1, “TREATMENT OF HIS HYPORESPONDERS” (NewAmsterdam Pharma B.V., priority 2021, dated 2023)
